Laboratory results: PubChem BioAssay (NCI)
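A five-concentration, 48-hour dose response in 96-well plates underlies each endpoint, interpolated linearly between surrounding concentrations. The concentration for 50% growth inhibition is given as GI50. TGI is the concentration that stops growth completely.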

Assays:
Assay in all cases: DTP human tumour cell line panel, 48 h
[1] = system: LOX IMVI melanoma
[2] = system: COLO 205 colon
[3] = system: UO-31 renal
[4] = system: MALME-3M melanoma
[5] = system: UACC-62 melanoma
[6] = system: M14 melanoma
[7] = system: MDA-MB-435
[8] = system: SNB-19 CNS
[9] = system: SK-OV-3 ovarian
[10] = system: U251 CNS
[11] = system: SF-295 CNS
[12] = system: HOP-92 NSCLC
[13] = system: UACC-257 melanoma
[14] = system: T-47D breast
[15] = system: NCI-H226 lung
[16] = system: HS 578T breast
[17] = system: RXF 393 renal
[18] = system: NCI/ADR-RES ovarian
[19] = system: SK-MEL-5 melanoma
[20] = system: PC-3 prostate
[21] = system: IGROV1 ovarian
[22] = system: A549 NSCLC
[23] = system: SNB-75 CNS
[24] = system: RPMI-8226 leukemia
[25] = system: OVCAR-8 ovarian
[26] = system: K-562 leukemia
[27] = system: HOP-62 NSCLC
[28] = system: BT-549 breast
[29] = system: EKVX NSCLC
[30] = system: 786-0 renal
[31] = system: HCC-2998 colon
[32] = system: SF-268 CNS
[33] = system: CAKI-1 renal
[34] = system: HT29 colon
[35] = system: SF-539 CNS
[36] = system: MDA-MB-231 breast
[37] = system: SN12C renal
[38] = system: MCF7 breast
[39] = system: OVCAR-4 ovarian
[40] = system: CCRF-CEM leukemia
[41] = system: NCI-H460 lung
[42] = system: ACHN renal
[43] = system: SK-MEL-2 melanoma
[44] = system: SR leukemia
[45] = system: DU-145 prostate
[46] = system: SK-MEL-28 melanoma
[47] = system: OVCAR-3 ovarian
[48] = system: SW-620 colon
[49] = system: OVCAR-5 ovarian
[50] = system: HCT-116 colon
[51] = system: KM12 colon
[52] = system: HL-60(TB) leukemia
[53] = system: TK-10 renal
[54] = system: NCI-H522 lung
[55] = system: NCI-H23 lung
[56] = system: A498 renal
[57] = system: MOLT-4 leukemia
[58] = system: HCT-15 colon

`CN1C(=O)N(C)C2C1NN=c1s/c(=C\c3ccc(C(F)(F)F)cc3)c(=O)n12` (stereo unspecified) showed a GI50 [1] of 854 nM, a TGI [1] greater than 100 µM and a GI50 [2] of 776 nM. For the same molecule, the TGI [2] was 4.72 µM, the GI50 [3] was 2210 nM and the TGI [3] was greater than 100 µM. It also gave a GI50 [4] of 8.33 µM, a TGI [4] greater than 100 µM and a GI50 [5] of 662 nM. The TGI [5] was greater than 100 µM, the GI50 [6] was 1360 nM and the TGI [6] was greater than 100 µM. The GI50 [7] was 312 nM, the TGI [7] was 1340 nM and the GI50 [8] was 2620 nM. It also gave a TGI [8] greater than 100 µM, a GI50 [9] of 3.96 µM and a TGI [9] of 46.9 µM. The GI50 [10] was 569 nM, the TGI [10] was 14.4 µM and the GI50 [11] was 581 nM. For the same molecule, the TGI [11] was 14.6 µM, the GI50 [12] was 433 nM and the TGI [12] was 57.9 µM. For the same molecule, the GI50 [13] was 14.5 µM, the TGI [13] was greater than 100 µM and the GI50 [14] was 1720 nM. The TGI [14] was greater than 100 µM, the GI50 [15] was 27 µM and the TGI [15] was greater than 100 µM. It also gave a GI50 [16] of 2130 nM, a TGI [16] of 81.9 µM and a GI50 [17] of 1730 nM. The TGI [17] was 6.77 µM, the GI50 [18] was 696 nM and the TGI [18] was 37.3 µM. For the same molecule, the GI50 [19] was 594 nM, the TGI [19] was 13.9 µM and the GI50 [20] was 677 nM. For the same molecule, the TGI [20] was greater than 100 µM, the GI50 [21] was 2650 nM and the TGI [21] was greater than 100 µM. For the same molecule, the GI50 [22] was 1450 nM, the TGI [22] was greater than 100 µM and the GI50 [23] was 2110 nM. For the same molecule, the TGI [23] was 18.1 µM, the GI50 [24] was 1650 nM and the TGI [24] was greater than 100 µM. The GI50 [25] was 2710 nM, the TGI [25] was 55.7 µM and the GI50 [26] was 431 nM. For the same molecule, the TGI [26] was greater than 100 µM, the GI50 [27] was 1310 nM and the TGI [27] was 20.1 µM. It also gave a GI50 [28] of 3.66 µM, a TGI [28] greater than 100 µM and a GI50 [29] of 4.17 µM. The TGI [29] was greater than 100 µM, the GI50 [30] was 3.82 µM and the TGI [30] was greater than 100 µM. For the same molecule, the GI50 [31] was 2680 nM, the TGI [31] was greater than 100 µM and the GI50 [32] was 10.4 µM. The TGI [32] was greater than 100 µM, the GI50 [33] was 3.39 µM and the TGI [33] was greater than 100 µM. The GI50 [34] was 440 nM, the TGI [34] was greater than 100 µM and the GI50 [35] was 983 nM. It also gave a TGI [35] of 6.26 µM, a GI50 [36] of 2290 nM and a TGI [36] of 14 µM. It also gave a GI50 [37] of 3.89 µM, a TGI [37] greater than 100 µM and a GI50 [38] of 392 nM. For the same molecule, the TGI [38] was greater than 100 µM, the GI50 [39] was greater than 100 µM and the TGI [39] was greater than 100 µM. It also gave a GI50 [40] of 955 nM, a TGI [40] greater than 100 µM and a GI50 [41] of 715 nM. It also gave a TGI [41] greater than 100 µM, a GI50 [42] of 2080 nM and a TGI [42] of 38.5 µM. For the same molecule, the GI50 [43] was 2590 nM, the TGI [43] was 24.1 µM and the GI50 [44] was 329 nM. For the same molecule, the TGI [44] was greater than 100 µM, the GI50 [45] was 2960 nM and the TGI [45] was greater than 100 µM. The GI50 [46] was 10.2 µM, the TGI [46] was greater than 100 µM and the GI50 [47] was 493 nM. For the same molecule, the TGI [47] was 17.7 µM, the GI50 [48] was 659 nM and the TGI [48] was greater than 100 µM. The GI50 [49] was 3.2 µM, the TGI [49] was greater than 100 µM and the GI50 [50] was 1550 nM. It also gave a TGI [50] greater than 100 µM, a GI50 [51] of 705 nM and a TGI [51] greater than 100 µM. For the same molecule, the GI50 [52] was 413 nM, the TGI [52] was 18.6 µM and the GI50 [53] was 4.06 µM. It also gave a TGI [53] of 75.9 µM, a GI50 [54] of 355 nM and a TGI [54] of 2250 nM. The GI50 [55] was 2490 nM, the TGI [55] was greater than 100 µM and the GI50 [56] was 2000 nM. It also gave a TGI [56] of 34.6 µM, a GI50 [57] of 2550 nM and a TGI [57] greater than 100 µM. For the same molecule, the GI50 [58] was 488 nM and the TGI [58] was greater than 100 µM.
